Results taken from US20140357706A1, “Stearate Compounds” (THE UAB RESEARCH FOUNDATION, priority 2011, published 2014).

Experiments:
[1] = test system: Ras; assay: Ras activation assay in Hs578T cells; assay type: cell-based, human; settings: with or without EGF
Description: The concentration of stearate used to treat the Hs578T cells was 50 μM. When EGF was used, the concentration was 1 nM EGF. Before the treatment with stearate or EGF, cells were first starved for 24-48 hours. Stearate was loaded onto fatty acid-free bovine serum albumin (BSA) according to the method reported by Spector et al. (13); briefly, stearate (0.5 g) was dissolved in chloroform (100 ml) and mixed well with 10 g diatomaceous earth in a 1 liter flask. The mixture was stirred and dried under nitrogen until powder. BSA is a physiological carrier of fatty acids and was used to avoid the introduction of organic solvents to solutions coming into contact with cells. Fatty acid-free BSA (1 g) was dissolved in 100 ml with Dulbecco's modified Eagle's medium without phenol red and mixed with 3 g of the stearate/diatomaceous earth mixture with stirring for 45 min. The stearate/BSA solution was filtered through a 0.45 μm filter, and adjusted to pH 7.4. The concentration of stearate in the solution was detected with the NEFA C Kit from Wako Chemicals GmbH (Neuss, Germany). […]
Ras and Rho activation assay kits were purchased from Millipore (Billerica, Mass.). […] The beads were washed three times with lysis buffer B. Bound Ras-GTP and Rho-GTP proteins were detected by immunoblot using Ras and Rho antibodies.

[2] = test system: Rho mRNA; assay: RT-PCR for RhoA, RhoB, RhoC in Hs578T cells; assay type: cell-based, human
Description: In total, 30-40% confluent Hs578T cells were treated with stearate (50 μM) for 48 hours after starvation for 24 hours. Total RNA was extracted and reverse-transcribed as described in RT-PCR for p21^CIP1/WAF1 and p27^[…]. The PCR assay was performed in a volume of 50 μl, containing 4μl DNA template, 45 μl Platinum PCR Supermix (Invitrogen) and 0.2 μM each specific primer. PCR specificity and efficiency were improved by using hot start PCR with 3 min pre-denaturation, at 95° C., and 30 cycles of denaturation (95° C., 30 s), annealing (52° C., 30 s) and 1 min extension (72° C.). The PCR products (20 INS>μl) were analyzed by means of 1% agarose in tris-acetate ethylenediaminetetraacetic acid gel electrophoresis and visualized by ethidium bromide staining under ultraviolet; digital images were analyzed by means of a FUJI Medical System (FUJIFILM) and the bands quantified by Quantity Software (FUJIFILM). […] was used to normalize the variable RNA loading in each sample. The calculated result represents the relative expression levels of target genes compared with its expression in the control group after the value of target genes was normalized to GAPDH expression levels.

[3] = test system: ERK; assay: Immunoblot of phosphorylated ERK in Hs578T cells; assay type: cell-based, human; settings: between 8 and 16 h post-stearate, sustained up to 24 h
Description: The concentration of stearate used to treat the Hs578T cells was 50 μM. When EGF was used, the concentration was 1 nM EGF. Before the treatment with stearate or EGF, cells were first starved for 24-48 hours. Stearate was loaded onto fatty acid-free bovine serum albumin (BSA) according to the method reported by Spector et al. (13); briefly, stearate (0.5 g) was dissolved in chloroform (100 ml) and mixed well with 10 g diatomaceous earth in a 1 liter flask. The mixture was stirred and dried under nitrogen until powder. BSA is a physiological carrier of fatty acids and was used to avoid the introduction of organic solvents to solutions coming into contact with cells. Fatty acid-free BSA (1 g) was dissolved in 100 ml with Dulbecco's modified Eagle's medium without phenol red and mixed with 3 g of the stearate/diatomaceous earth mixture with stirring for 45 min. The stearate/BSA solution was filtered through a 0.45 μm filter, and adjusted to pH 7.4. The concentration of stearate in the solution was detected with the NEFA C Kit from Wako Chemicals GmbH (Neuss, Germany). All experimental data on Hs578T cells were controlled using fatty acid-free BSA control solutions that were put through the same preparatory procedure described for the stearate/BSA solution except for the fact that no fatty acid was added.
Cells were treated as described above, and lysed with lysis buffer. […]

[4] = test system: p21^CIP1/WAF1 and p27^KIP1 mRNA; assay: Quantitative real-time RT-PCR for p21CIP1/WAF1 and p27KIP1 in Hs578T cells; assay type: cell-based, human; settings: normalized to 18S rRNA; vs control, P<0.05
Description: Total RNA was extracted and purified with TRIZOL Reagent (GIBCO Invitrogen, Carlsbad, Calif.). The first-strand complementary DNA (cDNA) synthesis was achieved using a commercially available kit (New England BioLabs, Beverly, Mass.) according to the protocol from the manufacturer. Briefly, 1 μg of total RNA was reverse-transcribed using M-MuLV reverse transcriptase (25 U) and dT23VN primer (5 μM) in a final volume of 25 μl.
Quantitative real-time reverse-transcription polymerase chain reaction (RT-PCR) cDNA samples were diluted to appropriate concentrations and used for a real-time RT-PCR assay in a volume of 25 μl, containing 2 μl DNA template, 12.5 μl SYBR® Green PCR Master Mix (Applied Biosystems, Foster City, Calif.) and 0.4 μM each specific primer. The gene expression of p21^CIP1/WAF1 and p27^KIP1 were determined by real-time quantitative RT-PCR and the house-keeping gene 18S ribosomal RNA (rRNA) was used as an internal control to normalize the variable RNA loading in each sample. […] The fluorescence intensity corresponding to the CT was used to quantitate the target cDNA in the mixture of samples with […] dilutions, employing the standard curve for each target gene. Sequence Detector Software (Applied Biosystems) was used to extract the data of the quantitative real-time RT-PCR. […]

[5] = test system: MCF10A; settings: ref (27); cited from earlier work

In the case of `CCCCCCCCCCCCCCCCCC(=O)O` [stearate, Stearic acid], the “Binding of GTP to Ras” value [1] is reported as “increases”, the “Rho mRNA expression” value ([2]; over 24 h) is reported as “neither EGF nor stearate affected” and the “RhoA mRNA expression” value ([2]; stearate 50 μM for 48 h) is reported as “significantly decreased”. For the same molecule, the “RhoB mRNA expression” value ([2]; stearate 50 μM for 48 h) was “remained unchanged”, the “RhoC mRNA expression” value ([2]; stearate 50 μM for 48 h) was “significantly decreased” and the “Total Rho mRNA expression” value ([2]; stearate 50 μM for 48 h) was “significantly decreased”. The “Phosphorylation of ERK” value [3] was “increased”, the “p21^CIP1/WAF1 mRNA expression” value [4] was “increased” and the “Effect on MCF10A non-tumorigenic cell line” value [5] was “not affected”.
